Reference: patent US9085557B2, “Quinolylpiperazino substituted thiolactone compounds and process for the preparation thereof” (Council of Scientific and Industrial Research, priority 2010, dated 2015)
Converted amounts (≈) assume the structure as drawn. Where two headings read alike, the source gives them in different places.

Columns and labels:
AML-12 cells = experiment: Cytotoxicity assay (MTT) on cell line AML-12; type: cell-based
Protocol: The study was carried out using AML-12 cells line (ATCC-USA). Cells were grown in Dulbecco's Modified Eagle's Medium (DMEM) containing 10% fetal calf serum (FCS) and supplemented with 100 units/ml penicillin, 100 μg/ml streptomycin, 0.005 mg/ml insulin, 0.005 mg/ml transferrin, 5 ng/ml selenium, and 40 ng/ml dexamethasone, in a humidified atmosphere in 5% CO2 at 37° C., and were sub-cultured at 1:5 ratio once a week.
Cells were plated at a density of 3×10^4 cells/cm^2 and maintained in culture medium for 12 h after trypsinization. Cells were seeded onto 96-well plates and FCS was reduced to 5% for the experiment. Stock solutions of compound 3f were prepared fresh to avoid oxidation. Cells were incubated with the compounds (2-100 μg/ml) for 24 hrs.
After the completion of treatment, the medium was removed and cell viability was evaluated by assaying for the ability of functional mitochondria to catalyze the reduction of 3-(4,5-dimethylthiazol-2-yl)-2,5-diphenyltetrazolium bromide (MTT) to form formazan salt by mitochondrial dehydrogenases, and determined by Elisa reader at 565 nm (Multiskan Spectrum; Thermo Electron Corporation, USA). Percentage cytotoxicity was calculated with respect to the untreated cells.

M. tuberculosis H37Rv = experiment: In vivo efficacy in murine model of M. tuberculosis H37Rv infection; set-up: species or system mice (BALB/c); conditions: for Log10 CFU/left Lung (mean ± SD): BALB/c mice, intranasal infection, treatment from 1 week post infection, PO once daily for 4 weeks, RIF 20 mg/kg, 3f 25 mg/kg
Protocol: The Compound 3f used in this study ([…]). The compound 3f was tested in vivo at 25 mg/kg. Rifampicin at 20 mg/kg was also tested as positive control. For in vivo studies compound and rifampicin was dissolved in pure DMSO and formulation was prepared 50% PEG in water for oral administration. The final concentration of DMSO was less than 0.1% v/v.
The institutional animal Ethics committee of the Indian Institute of Integrative Medicine (CSIR, Jammu) approved all experimental protocols with animals and the use of animals. The animals were bred and maintained under standard husbandry conditions; viz. humidity, temperature (25±2° C.). 8-week-old female (BALB/c) mice 20-22 gm by weight were used for the efficacy studies. Animals were allowed 1 week of acclimation before intake into experimental studies. Feed and water were given ad libitum.
Infection of M. tuberculosis:
M. tuberculosis (H37Rv) for infection was grown by the culturing of bacteria from Lowenstein-Jensen slant in Middlebrooke 7H9 medium on a rotary shaker for 10 days at 37° C. […] The mice were sacrificed after week post infection (early control), and bacterial numbers in the lungs were determined by macerating the organs (lung) and plating serial tenfold serial dilution on Middlebrook 7H10 agar plates in triplicates. […]
Eight infected mice were sacrificed from the control group 7 day after the infection (before the initiation of treatment) to obtain the initial CFU load of M. tuberculosis H37Rv at the initiation of treatment. […] Viable bacteria were quantitated by plating 10-fold serial dilutions in duplicates on Middlebrook, 7H10 agar supplemented with 10% OADC (oleic acid albumin dextrose catalase, Becton Dickinson, Sparks, Md.) and incubated at 37° C. in 5% CO2 for 4-6 weeks. CFU per organ sample was counted and expressed as log10 CFU per organ. CFU during in-vivo studies were determined on Middlebrook 7H10 plates supplement with 10% OADC containing Vancomycin 10 μg/ml, Amphoterecin 10 μg/ml, Nalidaxic acid 25 μg/ml. […]

[1] = tested on: M. tuberculosis XDR-1 (XDR- strain); experiment: microbe, parasite or virus in culture; type: cell-based, Mycobacterium tuberculosis; conditions: for in vitro activity (words): XDR clinical isolates
[2] = tested on: M. tuberculosis -617 (MDR- strain); experiment: microbe, parasite or virus in culture; type: cell-based, Mycobacterium tuberculosis; conditions: for in vitro activity (words): MDR clinical isolates
[3] = tested on: M. tuberculosis H37Rv (ATCC 27294); experiment: MIC determination by broth dilution against M. tuberculosis H37Rv; type: cell-based, Mycobacterium tuberculosis; conditions: for in vitro activity (words): M. tuberculosis H37Rv / sensitive isolates; for MIC: M. tuberculosis H37Rv, broth dilution, 3 weeks at 37° C., read visually (no turbidity)
[4] = Mycobacterium tuberculosis, 504 h, read-out: MIC
[5] = Mycobacterium tuberculosis, 504 h

What does the source list for `CC1=C(OCCCCCCCCCCCCN2CCN(c3ccnc4cc(C(F)(F)F)ccc34)CC2)C(C)SC1=O` (stereo not shown) [Compound 3f, 3,5-dimethyl-4-[(12-4-[7-(trifluoromethyl)-4-quinolyl]piperazinododecyl)oxy]-5H-thiophen-2-one]?
IC50 (extrapolate), cytotoxicity on AML-12 (AML-12 cells): IC50 > 433 μg/ml (extrapolate); type of in vivo activity (log CFU in lungs versus early control) (M. tuberculosis H37Rv; 25 mg/kg oral, 4 weeks): bacteriostatic activity; Log10 CFU/left Lung (mean ± SD) (M. tuberculosis H37Rv): 6.2 ± 0.34 Log10 CFU/left Lung; MIC ([1]; M. tuberculosis XDR-1 clinical isolate, broth dilution, 3 weeks): 0.5 µg/mL (≈ 0.845 µM); in vitro activity (words) ([1]; listed as Compound 3f): active; in vitro activity (words) ([1]; listed as compound 3f): exhibits in vitro activity; MIC ([2]; M. tuberculosis 617 MDR clinical isolate, broth dilution, 3 weeks): 0.5 µg/mL (≈ 0.845 µM); in vitro activity (words) ([2]; listed as Compound 3f): active; in vitro activity (words) ([2]; listed as compound 3f): exhibits in vitro activity; in vitro activity (words) ([3]; listed as Compound 3f): active; in vitro activity (words) ([3]; listed as compound 3f): exhibits in vitro activity; MIC [3]: 0.5 µg/mL (≈ 0.845 µM)

For `CC1=C(OCCCCCCCCCCN2CCCN(c3ccnc4cc(C(F)(F)F)ccc34)CC2)C(C)SC1=O` (stereo not shown) [Compound 5e, 3,5-dimethyl-4-[(10-4-[7-(trifluoromethyl)-4-quinolyl]-1,4-diazepan-1-yldecyl)oxy]-5H-thiophen-2-one], which MIC [3] is on record?
Its MIC is 8 µg/mL (≈ 13.8 µM).

Which MIC [3] does the source give for `CC1=C(OCCCCCCCCCCCCN2CCCN(c3ccnc4cc(C(F)(F)F)ccc34)CC2)C(C)SC1=O` (stereo not shown) [Compound 5f, 3,5-dimethyl-4-[(12-4-[7-(trifluoromethyl)-4-quinolyl]-1,4-diazepan-1-yldodecyl)oxy]-5H-thiophen-2-one] here?
The MIC was 8 µg/mL (≈ 13.2 µM).

For `CC1=C(OCCCCCN2CCCN(c3ccnc4cc(Cl)ccc34)CC2)C(C)SC1=O` (stereo not shown) [Compound 6a, 3,5-dimethyl-4-(5-[4-(7-chloro-4-quinolyl)-1,4-diazepan-1-yl]pentyloxy)-5H-thiophen-2-one], which MIC [3, 4] is on record?
The MIC was 16 µg/mL (≈ 33.8 µM).

Which MIC [3, 4] does the source give for `CC1=C(OCCCCCCN2CCCN(c3ccnc4cc(Cl)ccc34)CC2)C(C)SC1=O` (stereo not shown) [Compound 6b, 3,5-dimethyl-4-(6-[4-(7-chloro-4-quinolyl)-1,4-diazepan-1-yl]hexyloxy)-5H-thiophen-2-one] here?
The MIC was 8 µg/mL (≈ 16.4 µM).

`CC1=C(OCCCCCCCCN2CCCN(c3ccnc4cc(Cl)ccc34)CC2)C(C)SC1=O` (stereo not shown) [Compound 6c, 3,5-dimethyl-4-(8-[4-(7-chloro-4-quinolyl)-1,4-diazepan-1-yl]octyloxy)-5H-thiophen-2-one] was tested. Which MIC [3, 4] did it give?
The MIC was 16 µg/mL (≈ 31 µM).

For `CC1=C(OCCCCCCCCCN2CCCN(c3ccnc4cc(Cl)ccc34)CC2)C(C)SC1=O` (stereo not shown) [Compound 6d, 3,5-dimethyl-4-(9-[4-(7-chloro-4-quinolyl)-1,4-diazepan-1-yl]nonyloxy)-5H-thiophen-2-one], which MIC [3, 4] is on record?
The MIC was 8 µg/mL (≈ 15.1 µM).

For `CC1=C(OCCCCCCCCCCN2CCCN(c3ccnc4cc(Cl)ccc34)CC2)C(C)SC1=O` (stereo not shown) [Compound 6e, 3,5-dimethyl-4-(10-[4-(7-chloro-4-quinolyl)-1,4-diazepan-1-yl]decyloxy)-5H-thiophen-2-one], which MIC [3, 4] is on record?
Its MIC is 16 µg/mL (≈ 29.4 µM).

`CC1=C(OCCCCCCCCCCCCN2CCCN(c3ccnc4cc(Cl)ccc34)CC2)C(C)SC1=O` (stereo not shown) [Compound 6f, 3,5-dimethyl-4-(12-[4-(7-chloro-4-quinolyl)-1,4-diazepan-1-yl]dodecyloxy)-5H-thiophen-2-one] was tested. Which MIC [3, 4] did it give?
The MIC was 4 µg/mL (≈ 6.99 µM).

Which results are given for `NNC(=O)c1ccncc1` [Isoniazid, reference compound]?
MIC [1, 5]: 0.5 µg/mL (≈ 3.65 µM); MIC [2, 5]: 128 µg/mL (≈ 933 µM); MIC [3, 4]: 0.5 µg/mL (≈ 3.65 µM)

Which “Log10 CFU/left Lung (mean ± SD)” value (M. tuberculosis H37Rv) does the source give for `CO[C@H]1/C=C/O[C@@]2(C)Oc3c(C)c(O)c4c(O)c(c(/C=N/N5CCN(C)CC5)c(O)c4c3C2=O)NC(=O)/C(C)=C\C=C\[C@H](C)[C@H](O)[C@@H](C)[C@@H](O)[C@@H](C)[C@H](OC(C)=O)[C@@H]1C` [RIF, Rifampicin, reference compound] here?
Its value is 2.0 ± 0.41 Log10 CFU/left Lung.

Which results are given for `C=C/C(C)=C/[C@@]1(C)SC(=O)C(C)=C1O` [Thiolactomycin, reference compound]?
MIC [1, 5]: 25 µg/mL (≈ 119 µM); MIC [2, 5]: 25 µg/mL (≈ 119 µM); MIC [3]: 25 µg/mL (≈ 119 µM); MIC [3, 4]: 25 µg/mL (≈ 119 µM)
